Laboratory results from patent publication US6369061B1, “Therapeutic agent for spinal canal stenosis” (Mitsubishi Pharma Corporation, priority 1998, dated 2002).

Tested on: rabbit acute spinal canal stenosis model
Experiment: Rabbit cauda equina nerve graded constriction model as rabbit acute spinal canal stenosis model (nerve conduction velocity, tissue blood flow, tissue oxygen tension)
Format: in vivo
Settings: for Cauda equina nerve conduction velocity / Cauda equina nerve tissue blood flow / Cauda equina nerve tissue oxygen tension: measured 8 days after model preparation, mean ± standard error
Experimental: Effects of compound A on cauda equina nerve conduction velocity, cauda equina nerve tissue blood flow and variation in cauda equina nerve tissue oxygen tension in a rabbit acute spinal canal stenosis model
(1) Preparation of the Rabbit Cauda Equina Nerve Graded Constriction Model as Rabbit Acute Spinal Canal Stenosis Model Male Japanese white rabbits were fixed at the abdominal position under anesthesia by an intravenous injection of pentobarbital sodium (25 mg/kg, DAINIPPON PHARMACEUTICAL CO., LTD.) and the vertebral arch of the fifth lumbar vertebra was removed under a microscope (OLYMPUS OME) observation to expose cauda equina nerve. After the cauda equina nerve fascicle was gently ligated at one site together with a 26 G injection needle using a catgut suture (chromic catgut (thread 4-0, needle 12.9 mm), Johnson and Johnson), the injection needle was pulled out, and the dissected portion was sutured. In the sham operation group, the cauda equina nerve was only exposed and the dissected portion was sutured.
The rabbits were grouped in turn into a sham operation group (6 rabbits), a solvent group (6 rabbits), a compound A (3 mg/kg) administration group (6 rabbits), a compound A (10 mg/kg) administration group (6 rabbits), a compound A (30 mg/kg) administration group (6 rabbits), and a cilostazol (300 mg/kg, the same anti-platelet drug as compound A as a control drug, Otsuka Pharmaceutical Co., Ltd.) administration group (6 rabbits).
The drug was prepared into the volume of 5 mL/kg by suspending in 0.5% methylcellulose solution, and orally administered repeatedly once a day for 7 consecutive days from the next day of the model preparation. The 0.5% methylcellulose solution (5 mL/kg) was administered in the same manner to the solvent group. Nothing was administered to the sham operation group.
The next day of the final administration (8 days after model animals preparation), the model animals were anesthetized by an intravenous injection of pentobarbital sodium (25 mg/kg) and, after insertion of a tracheal catheter, fixed at the abdominal position. The rabbits were connected to a ventilator (45 times/min) and given pancuronium bromide (0.08 mg/kg, Sankyo Co., Ltd.) by an intravenous administration. The cauda equina nerve tissue blood flow in the downstream portion of the ligation site was measured transdurally using a laser blood flowmeter [ADVANCED LASER FLOWMETER, ALF2100, Advance] under the microscope observation. The cauda equina nerve tissue oxygen tension was measured at the same site using a pO2 monitor (model POG-201, Unique Medical Co. Ltd.). The cauda equina nerve conduction velocity was obtained by deriving the action potential induced by a spinal electric stimulus in the upper point and lower point of the ligation site and dividing the distance between the both points by the difference in the rise latent time (SIGNAL PROCESSOR, San-ei).
The obtained results are shown in mean±standard error. Using SAS (Statistical Analysis System), the following statistical analysis was performed. The sham operation group and the solvent group were compared by the Student's t-test. The effect of the drug was verified by the Dunnett's method to the solvent group as a control. In both tests, p<0.05 was taken as statistically significant.

[1] = 300 mg/kg p.o. once a day for 7 days
[2] = 300 mg/kg p.o., vs. solvent group
[3] = 3 mg/kg p.o. once a day for 7 days
[4] = 10 mg/kg p.o. once a day for 7 days
[5] = 30 mg/kg p.o. once a day for 7 days

Row | Compound | Cauda equina nerve conduction velocity [1] | Cauda equina nerve tissue blood flow [1] | Cauda equina nerve tissue oxygen tension [1] | Effect on cauda equina nerve conduction velocity (in words) [2] | Effect on cauda equina nerve tissue blood flow (in words) [2] | Effect on cauda equina nerve tissue oxygen tension (in words) [2] | Cauda equina nerve conduction velocity [3] | Cauda equina nerve tissue blood flow [3] | Cauda equina nerve tissue oxygen tension [3] | Cauda equina nerve conduction velocity [4] | Cauda equina nerve tissue blood flow [4] | Cauda equina nerve tissue oxygen tension [4] | Cauda equina nerve conduction velocity [5] | Cauda equina nerve tissue blood flow [5] | Cauda equina nerve tissue oxygen tension [5] | Effect on cauda equina nerve tissue blood flow (in words) (30 mg/kg p.o., vs. solvent group) | Effect on decrease in cauda equina nerve conduction velocity (in words) (3, 10, 30 mg/kg p.o., vs. solvent group) | Effect on cauda equina nerve tissue oxygen tension (in words) (3, 10, 30 mg/kg p.o., vs. solvent group, significant at 30 mg/kg)
1 | O=C1CCc2cc(OCCCCc3nnnn3C3CCCCC3)ccc2N1 [Cilostazol, cilostazol, reference compound] | 14.585 ± 2.606 cm/ms | 21.88 ± 4.25 ml/min. 100 g tissue | 33.7 ± 5.3 mmHg | did not improve the velocity | not improved | did not show an increasing effect | – | – | – | – | – | – | – | – | – | – | – | –
2 | Cl.O=c1[nH]nc(OCCCc2ccc(Cl)cc2)c(NCc2cccnc2)c1Br [Compound A, 4-bromo-6-[3-(4-chlorophenyl)propoxy]-5-(3-pyridylmethylamino)-3(2H)-pyridazinone hydrochloride] | – | – | – | – | – | – | 20.327 ± 4.871 cm/ms | 23.33 ± 4.59 ml/min. 100 g tissue | 35.5 ± 5.6 mmHg | 22.838 ± 3.571 cm/ms | 24.42 ± 2.70 ml/min. 100 g tissue | 42.8 ± 5.8 mmHg | 27.098 ± 3.627 cm/ms | 33.67 ± 4.21 ml/min. 100 g tissue | 49.8 ± 3.4 mmHg | significantly increased | significantly lessened the decrease in a dose-dependent manner | showed a dose-dependent increase
